The values below come from publication PMC8667942 (Journal of Enzyme Inhibition and Medicinal Chemistry, 2021).

The target in data set [1] is purified CYP3A4 (Homo sapiens, UniProt P08684). As to the kind of experiment: Spectral binding titration of purified CYP3A4. As to conditions: 1 µM purified CYP3A4, pH 7.4, no binding = no spectral change up to 200 μM; for Kd: read-out: CYP3A4 Kd (spectral dissociation constant).
Description: Purified CYP3A4 enzymes were diluted to 1 µM in 100 mM potassium phosphate buffer (pH 7.4) and then divided into two glass cuvettes. […] The binding titration was analysed using GraphPad Prism software (GraphPad, Inc., La Jolla, CA, USA).
Data set [2] concerns the target T1, human IP6K2 (Homo sapiens, UniProt Q9UHH9).
T1 construct: made in house; host or cells: Sf9 insect cells (baculovirus)
T1 sequence (Q9UHH9 1-426): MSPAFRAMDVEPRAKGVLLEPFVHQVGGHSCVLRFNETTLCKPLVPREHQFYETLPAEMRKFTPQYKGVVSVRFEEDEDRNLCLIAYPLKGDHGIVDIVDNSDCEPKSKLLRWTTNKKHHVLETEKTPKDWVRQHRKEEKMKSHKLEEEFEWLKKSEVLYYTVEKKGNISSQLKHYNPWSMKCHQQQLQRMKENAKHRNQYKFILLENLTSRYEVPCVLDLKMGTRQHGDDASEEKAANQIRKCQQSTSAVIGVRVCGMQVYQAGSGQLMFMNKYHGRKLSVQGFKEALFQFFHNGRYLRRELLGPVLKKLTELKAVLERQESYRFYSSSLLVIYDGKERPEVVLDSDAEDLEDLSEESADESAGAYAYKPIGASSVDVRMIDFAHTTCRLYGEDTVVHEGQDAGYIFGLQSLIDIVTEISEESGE
As to the kind of experiment: IP6K2 inhibition assay (ADP Glo kinase assay). The format is biochemical. Conditions: purified human IP6K2, 10 μM IP6, 10 μM ATP, 8-dose, triplicate, mean ± SEM. The protocol:
Full-length human IP6K2 cDNA was subcloned into pFASTBAC1 plasmid (Gibco) with an N-terminal FLAG epitope sequence, and baculovirus was generated according to the manufacturer’s instructions. Sf9 insect cells were infected with baculovirus and incubated for 72 h. The cells were resuspended in lysis buffer [20 mM Tris–HCl (pH 7.9), 500 mM NaCl, 4 mM MgCl2, 0.4 mM EDTA, 2 mM DTT, 20% glycerol, 1 mM PMSF, and protease inhibitor cocktail (Roche)] and then disrupted with a Dounce homogeniser (pestle A, 3 series of 10 strokes with 10 min interval).
IP6K2 activity was measured using ADP Glo assay kit (Promega). All kinase assays were performed in low volume 384-well white plates (784075, Greiner-bioone) with a final volume of 5 μL. The reaction buffer contained 2 ng Flag-hIP6K2, 10 μM IP6, and 10 μM ATP in kinase buffer (50 mM Tris, 10 mM MgCl2, 2.5 mM DTT, 0.02% Triton-X-100, pH 6.8)[26]. For dose-dependent inhibition assay, 8 serial 2-fold dilutions of test compounds were prepared in DMSO. The final DMSO concentration was 5% in each reaction. The test compounds (5X, 25% DMSO in 1X kinase buffer) were dispensed to each well, and 2.5 X IP6K2 in kinase buffer were added. After 15 min incubation at room temperature, 2.5 X concentrations of IP6 and ATP were added to the plate. The reaction plate was incubated in a 37 °C incubator for 30 min. Next, the reactions were quenched with 5 μL of ADP Glo reagent for 40 min to deplete the remaining ATP. To convert the remaining ADP to ATP, 10 μl of detection reagent were added and incubated for 30–60 min. The luminescence of the final reactants was measured using the Mithras LB940 plate reader from Berthold. Samples were run in triplicate and the activity (%) was calculated using the following equations; Activity (%) = 100 × (μexperimental–μnegative)/(μpositive–μnegative). Negative control was DSMO-treated reaction. IC50 value was estimated using a logistic regression model with R package.
A general note: ADP-Glo first removes unused ATP, then detects ADP through luciferase.

Data set [3] relates to IP7 synthesis in HCT116 cells. As to the kind of experiment: Quantification of intracellular inositol phosphates by HPLC in radiolabeled HCT116. The format is cell-based, human. As to conditions: HCT116, 50 μM, 4 h. The protocol: For HPLC analysis, 2 × 10^5 cells/60 mm dish of HCT116 were treated with 75 μCi [^3H] myo-inositol (NET1177001MC, PerkinElmer). After 3 days, soluble inositol polyphosphates from HCT116 (human colorectal cancer cell line) were extracted and analysed as previously described. Intracellular inositol phosphates were extracted with acid extraction buffer (1 M HClO4, 3 mM EDTA, and 0.1 mg/ml1 IP6), and neutralised with neutralisation buffer (1 M K2CO3 and 3 mM EDTA). The lysates were centrifuged for 10 min, and the soluble fraction was resolved by HPLC as described earlier. The lipid pellet was lysed with 0.1% Triton X-100 in NaOH overnight. Each fraction was mixed with Ultima-Flo AP liquid scintillation cocktail (6013599, PerkinElmer), and radioactivity was counted in a scintillation counter. Quantity of inositol phosphates was presented as total counts/min (CPM) normalised by total lipid contents.

Data set [4] deals with Akt phosphorylation at Thr308 in HCT116 cells. As to the kind of experiment: AKT activation in HCT116 cells (Western blot). The format is cell-based, human. As to conditions: HCT116, 50 μM, 4 h, pAkt/Akt by Western blot. On the procedure:
Total proteins were quantified by bicinchoninic acid assay (23225, Thermo Fisher Scientific). Total 20 μg proteins were resolved in 8% SDS–PAGE, and then Akt phosphorylation was probed with primary antibodies against, phospho–Akt (Thr308) (4056) and Akt (9272) (Cell Signalling) and HRP-conjugated secondary antibody. The relative band intensities of Akt phosphorylation to total Akt were quantified with Image J software.
(In general: Immunoblotting shows a protein as a band on a membrane.)

Data set [5] concerns the target T2, recombinant microsomal CYP3A4 (Homo sapiens, UniProt P08684).
T2 construct: purchased Invitrogen P2858; host or cells: BACULOSOMES (microsomes of baculovirus-infected insect cells: own knowledge of the product)
As to the kind of experiment: In vitro CYP450 activity assay (Vivid CYP450 Blue screening kit, BOMCC). The class given is in vitro ADME. Conditions: recombinant CYP3A4, 100 nM treatment for 10 min, mean ± SEM.
Description: The activity of CYP3A4 was measured using the Vivid® CYP450 Blue screening kit (Cat No. P2858 for 3A4, Invitrogen). […] The system consisted of 100 μL of the final volume. The CYP450 substrate Vivid BOMCC and positive control inhibitor (ketoconazole), were dissolved in acetonitrile. […] The mixture containing test drugs, Vivid® CYP450 BACULOSOMES reagent, and Vivid® Regeneration system (Total 90 μL) was dispensed into a 96-well black plate and incubated at room temperature for 20 min. After adding 10 μL of Vivid® CYP450 reaction buffer (100 μM NADP, 10 μM Vivid® BOMCC), the mixture was incubated for 10 min at room temperature. […] The CYP450 3A4 inhibitory efficiency (%) of the test drug was calculated by comparing the reaction rates of the test compounds with the reaction rate of the positive control group (Ketoconazole) and the negative control group (0.1% Acetonitrile, 0.1% DMSO) using the measured fluorescence values.

Where “and” joins values, the source holds several entries; their conditions need not be identical. Equal entries are not always repeated. Entries after “also recorded” stand apart in the source; their conditions may differ.

purified CYP3A4, sequence (P08684 whole entry): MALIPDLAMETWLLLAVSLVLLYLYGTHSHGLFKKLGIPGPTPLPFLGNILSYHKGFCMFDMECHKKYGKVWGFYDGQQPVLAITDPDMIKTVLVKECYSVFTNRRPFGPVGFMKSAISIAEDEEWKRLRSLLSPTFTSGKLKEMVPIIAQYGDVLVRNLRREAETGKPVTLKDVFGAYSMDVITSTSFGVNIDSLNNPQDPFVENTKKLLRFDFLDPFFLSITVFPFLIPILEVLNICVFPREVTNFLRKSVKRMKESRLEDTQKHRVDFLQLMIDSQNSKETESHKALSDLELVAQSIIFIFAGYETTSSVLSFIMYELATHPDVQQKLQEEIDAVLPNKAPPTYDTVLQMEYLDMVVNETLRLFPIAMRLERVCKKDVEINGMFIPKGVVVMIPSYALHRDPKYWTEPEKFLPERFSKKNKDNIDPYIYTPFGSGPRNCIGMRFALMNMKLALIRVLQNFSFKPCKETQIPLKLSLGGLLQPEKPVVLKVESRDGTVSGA
T2 sequence (P08684 whole entry): as above

Turning to `CS(=O)(=O)c1ccc(CNc2nc(NCc3cccc(C(F)(F)F)c3)nc3[nH]cnc23)cc1` [Compound 6, N^6-(4-(methylsulfonyl)benzyl)-N^2-(3-(trifluoromethyl)benzyl)-9H-purine-2,6-diamine], the Kd in data set [1] was found to be 24.8 ± 4.3 µM. Also, in data set [2], the midpoint of inhibition, the IC50, lay at 4.6 ± 0.2 µM.

With `CS(=O)(=O)c1ccc(CNc2nc(NCc3ccc(F)cc3)nc3[nH]cnc23)cc1` [Compound 7, N^2-(4-fluorobenzyl)-N^6-(4-(methylsulfonyl)benzyl)-9H-purine-2,6-diamine], the dissociation constant (Kd) in data set [1] came to 28.8 ± 2.7 µM. In addition, the half-inhibitory concentration (IC50) in data set [2] stood at 7.3 ± 0.5 µM.

Turning to `CS(=O)(=O)c1ccc(CNc2nc(NCc3ccc(Cl)cc3)nc3[nH]cnc23)cc1` [Compound 8, N^2-(4-chlorobenzyl)-N^6-(4-(methylsulfonyl)benzyl)-9H-purine-2,6-diamine], the Kd in data set [1] was 14.4 ± 3.3 µM.

In the case of `CS(=O)(=O)c1ccc(CNc2nc(NCc3ccc([N+](=O)[O-])cc3)nc3[nH]cnc23)cc1` [Compound 9, N^6-(4-(methylsulfonyl)benzyl)-N^2-(4-nitrobenzyl)-9H-purine-2,6-diamine], in data set [1], the “CYP3A4 Kd (spectral dissociation constant)” value (from here on “CYP3A4 Kd”) is “did not show any binding spectral change; also recorded: without binding to CYP3A4; also recorded: No binding^d”. The IC50 in data set [2] is 16 µM and 16.8 µM. Further, in data set [3], the “IP4, IP5, and IP6 levels” value is recorded as “without notable changes”; the “cellular IP7 synthesis (effect in words)” value was “reduced cellular IP7 synthesis”; the “decrease of cellular IP7 synthesis compared to DMSO” value is recorded as approximately 44%. Moreover, the “increase in Akt phosphorylation at Thr308 compared to vehicle treatment” value (“increase in Akt phosphorylation” below) in data set [4] was “more than 1.5 fold”.

Regarding `FC(F)(F)c1cccc(CNc2nc(NCc3cccnc3)c3nc[nH]c3n2)c1` [Compound 10, N^6-(pyridin-3-ylmethyl)-N^2-(3-(trifluoromethyl)benzyl)-9H-purine-2,6-diamine], the dissociation constant (Kd) in data set [1] was determined as 1.4 ± 0.5 µM. This compound gave an IC50 in data set [2] of 5.3 ± 0.3 µM.

As to `Fc1ccc(CNc2nc(NCc3cccnc3)c3nc[nH]c3n2)cc1` [Compound 11, N^2-(4-fluorobenzyl)-N^6-(pyridin-3-ylmethyl)-9H-purine-2,6-diamine], the Kd in data set [1] amounted to 3 ± 0.6 µM. This compound also showed an IC50 in data set [2] of 5.9 ± 0.2 µM.

For `Clc1ccc(CNc2nc(NCc3cccnc3)c3nc[nH]c3n2)cc1` [Compound 12, N^2-(4-chlorobenzyl)-N^6-(pyridin-3-ylmethyl)-9H-purine-2,6-diamine], in data set [1], the Kd came out at 1.8 ± 0.6 µM.

Take `O=[N+]([O-])c1ccc(CNc2nc(NCc3cccnc3)c3nc[nH]c3n2)cc1` [Compound 13, N^2-(4-nitrobenzyl)-N^6-(pyridin-3-ylmethyl)-9H-purine-2,6-diamine]: the melting point came out at 251 °C. Also, in data set [5], the “Relative 3A4 inhibition (% of TNP)” value is recorded as 126 ± 1 % of TNP. For the same compound, in data set [1], the Kd stood at 2 ± 0.5 µM. The same compound registered a 50% inhibitory concentration (IC50) in data set [2] of 3.3 ± 0.8 µM.

In the case of `FC(F)(F)c1cccc(CNc2nc(NCc3ncc[nH]3)c3nc[nH]c3n2)c1` [Compound 14, N^6-((1H-imidazol-2-yl)methyl)-N^2-(3-(trifluoromethyl)benzyl)-9H-purine-2,6-diamine], the Kd in data set [1] was 22.2 ± 4.5 µM. The same compound displayed an IC50 in data set [2] of 34.7 ± 0.7 µM.

On to `Fc1ccc(CNc2nc(NCc3ncc[nH]3)c3nc[nH]c3n2)cc1` [Compound 15, N^6-((1H-imidazol-2-yl)methyl)-N^2-(4-fluorobenzyl)-9H-purine-2,6-diamine], for which the “CYP3A4 Kd” value in data set [1] is reported as “did not display any binding spectral change; also recorded: without binding to CYP3A4; also recorded: No binding^d”. For the same compound, the IC50 in data set [2] is 24.7 ± 0.2 µM. In addition, in data set [3], the “IP4, IP5, and IP6 levels” value is listed as “without notable changes”; the “cellular IP7 synthesis (effect in words)” value was “reduced cellular IP7 synthesis”. In addition, the “increase in Akt phosphorylation” value in data set [4] is reported as “more than 1.5 fold”.

Take `Clc1ccc(CNc2nc(NCc3ncc[nH]3)c3nc[nH]c3n2)cc1` [Compound 16, N^6-((1H-imidazol-2-yl)methyl)-N^2-(4-chlorobenzyl)-9H-purine-2,6-diamine]: the equilibrium dissociation constant (Kd) in data set [1] stood at 40.5 ± 8 µM. In data set [2], this compound gave an IC50 of 19.9 ± 0.1 µM.

On to `FC(F)(F)c1cccc(CNc2nc(NCc3nc4ccccc4[nH]3)c3nc[nH]c3n2)c1` [Compound 17, N^6-((1H-benzo[d]imidazol-2-yl)methyl)-N^2-(3-(trifluoromethyl)benzyl)-9H-purine-2,6-diamine], for which the melting point is 289 °C. Further, in data set [5], the “Relative 3A4 inhibition (% of TNP)” value is 116 ± 3 % of TNP. Further, in data set [1], the Kd turned out to be 7.9 ± 0.8 µM. For the same compound, the IC50 in data set [2] turned out to be 12.6 ± 0.4 µM.

In turn, `Fc1ccc(CNc2nc(NCc3nc4ccccc4[nH]3)c3nc[nH]c3n2)cc1` [Compound 18, N^6-((1H-benzo[d]imidazol-2-yl)methyl)-N^2-(4-fluorobenzyl)-9H-purine-2,6-diamine] registered a melting point of 287 °C. Also, the “Relative 3A4 inhibition (% of TNP)” value in data set [5] is given as 120 ± 1 % of TNP. Also, in data set [1], the Kd was 11.1 ± 1 µM. Moreover, it took 13.2 ± 0.4 µM to reach half-maximal inhibition in data set [2] (IC50).

With `Clc1ccc(CNc2nc(NCc3nc4ccccc4[nH]3)c3nc[nH]c3n2)cc1` [Compound 19, N^6-((1H-benzo[d]imidazol-2-yl)methyl)-N^2-(4-chlorobenzyl)-9H-purine-2,6-diamine], the melting point is 160 °C. Also, in data set [5], the “Relative 3A4 inhibition (% of TNP)” value was 120 ± 0.66 % of TNP. For the same compound, in data set [1], the Kd came out at 16.9 ± 3.7 µM. Also, inhibition in data set [2] was half-maximal at 19.3 ± 0.27 µM (IC50).

In the case of `O=[N+]([O-])c1ccc(CNc2nc(NCc3nc4ccccc4[nH]3)c3nc[nH]c3n2)cc1` [Compound 20, N^6-((1H-benzo[d]imidazol-2-yl)methyl)-N^2-(4-nitrobenzyl)-9H-purine-2,6-diamine], the melting point came to 153 °C. Besides, the “Relative 3A4 inhibition (% of TNP)” value in data set [5] is listed as 65.7 ± 1.97 % of TNP. In data set [1], the “CYP3A4 Kd” value was “did not show any spectral dissociation constant value; also recorded: without binding to CYP3A4; also recorded: No binding^d”. In data set [2], this compound displayed an IC50 of 21.8 ± 0.3 µM. Besides, in data set [3], the “IP4, IP5, and IP6 levels” value is given as “without notable changes”; the “cellular IP7 synthesis (effect in words)” value is “reduced cellular IP7 synthesis”. For the same compound, the “increase in Akt phosphorylation” value in data set [4] is “more than 1.5 fold”.

By Kd is commonly meant the equilibrium constant for the complex coming apart. As usually defined, the IC50 is the point on the concentration scale where inhibition reaches its midpoint. The low end stands for greater potency in that assay, the high end for weaker potency in that assay. A word on the melting point: it is the temperature, or range, at which the solid turns liquid.
